# According to the supplement of paper PMC10307832:
# Assays:
# Assay in all cases: relative viability (nuclei count vs DMSO), 5 days (fraction); higher = more cells survive
# PC-3 [JPC-3] = tested on: PC-3 [JPC-3]
# Outline: (§1)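 One day after seeding in 1536-well plates, lung cancer cell lines were dosed by pin tool. Dosing was either single-drug or a fixed anchor-drug dose plus five library-drug doses (not always all listed) in √10 steps. After 5 days, nuclei were stained in one fix-and-stain step and counted on 4× images, and relative viability is the nuclei count of treated wells over that of vehicle wells, given as the median of duplicate plates.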
# NCI-H1944 = tested on: NCI-H1944
# Outline: as §1
# NCI-H1703 = tested on: NCI-H1703
# Outline: as §1
# EBC-1 = tested on: EBC-1
# Outline: as §1
# IA-LM = tested on: IA-LM
# Outline: as §1
# A549 = tested on: A549
# Outline: as §1
# NCI-H1299 = tested on: NCI-H1299
# Outline: as §1
# Calu-6 = tested on: Calu-6
# Outline: as §1
# HCC-44 = tested on: HCC-44
# Outline: as §1
# A-427 = tested on: A-427
# Outline: as §1
smiles,measurement,setting,value
C=C1C(=O)O[C@@H](CCCCCCCC)[C@@H]1C(=O)O [C-75] + CC1(C)CCC(c2ccc(Cl)cc2)=C(CN2CCN(c3ccc(C(=O)NS(=O)(=O)c4ccc(N[C@H](CCN5CCOCC5)CSc5ccccc5)c(S(=O)(=O)C(F)(F)F)c4)cc3)CC2)C1 [Navitoclax] (partner 0.5 µM),relative viability,PC-3 [JPC-3]; first compound 0.08 µM,0.853
same,relative viability,PC-3 [JPC-3]; first compound 0.253 µM,0.841
same,relative viability,PC-3 [JPC-3]; first compound 0.8 µM,0.841
same,relative viability,PC-3 [JPC-3]; first compound 2.53 µM,0.826
same,relative viability,PC-3 [JPC-3]; first compound 8 µM,0.874
same,relative viability,NCI-H1944; first compound 0.08 µM,1.03
same,relative viability,NCI-H1944; first compound 0.253 µM,0.896
same,relative viability,NCI-H1944; first compound 0.8 µM,1.01
same,relative viability,NCI-H1944; first compound 8 µM,0.998
same,relative viability,NCI-H1703; first compound 0.08 µM,1.15
same,relative viability,NCI-H1703; first compound 0.253 µM,1.12
same,relative viability,NCI-H1703; first compound 0.8 µM,0.817
same,relative viability,NCI-H1703; first compound 2.53 µM,1.09
same,relative viability,NCI-H1703; first compound 8 µM,0.967
same,relative viability,EBC-1; first compound 0.08 µM,0.389
same,relative viability,EBC-1; first compound 0.253 µM,0.508
same,relative viability,EBC-1; first compound 0.8 µM,0.306
same,relative viability,EBC-1; first compound 2.53 µM,0.356
same,relative viability,EBC-1; first compound 8 µM,0.219
same,relative viability,IA-LM; first compound 0.08 µM,0.754
same,relative viability,IA-LM; first compound 0.253 µM,0.834
same,relative viability,IA-LM; first compound 0.8 µM,0.819
same,relative viability,IA-LM; first compound 2.53 µM,0.52
same,relative viability,IA-LM; first compound 8 µM,0.512
same,relative viability,A549; first compound 0.08 µM,1.12
same,relative viability,A549; first compound 0.253 µM,1.29
same,relative viability,A549; first compound 0.8 µM,1.18
same,relative viability,A549; first compound 2.53 µM,0.819
same,relative viability,A549; first compound 8 µM,1.15
same,relative viability,NCI-H1299; first compound 0.08 µM,1.07
same,relative viability,NCI-H1299; first compound 0.253 µM,1.03
same,relative viability,NCI-H1299; first compound 0.8 µM,1.05
same,relative viability,NCI-H1299; first compound 2.53 µM,1.03
same,relative viability,NCI-H1299; first compound 8 µM,1.12
same,relative viability,Calu-6; first compound 0.08 µM,0.819
same,relative viability,Calu-6; first compound 0.253 µM,0.864
same,relative viability,Calu-6; first compound 0.8 µM,0.786
same,relative viability,Calu-6; first compound 2.53 µM,0.738
same,relative viability,Calu-6; first compound 8 µM,0.714
same,relative viability,HCC-44; first compound 0.08 µM,0.972
same,relative viability,HCC-44; first compound 0.253 µM,0.959
same,relative viability,HCC-44; first compound 0.8 µM,0.905
same,relative viability,HCC-44; first compound 2.53 µM,0.791
same,relative viability,HCC-44; first compound 8 µM,1.02
same,relative viability,A-427; first compound 0.08 µM,0.935
same,relative viability,A-427; first compound 0.253 µM,1.04
same,relative viability,A-427; first compound 0.8 µM,0.915
same,relative viability,A-427; first compound 2.53 µM,0.903
same,relative viability,A-427; first compound 8 µM,0.93
C=C1C(=O)O[C@@H](CCCCCCCC)[C@@H]1C(=O)O [C-75] + CC(=O)Nc1cccc(-n2c(=O)n(C3CC3)c(=O)c3c(Nc4ccc(I)cc4F)n(C)c(=O)c(C)c32)c1 [Trametinib] (partner 0.02 µM),relative viability,PC-3 [JPC-3]; first compound 0.08 µM,0.744
same,relative viability,PC-3 [JPC-3]; first compound 0.253 µM,0.651
same,relative viability,PC-3 [JPC-3]; first compound 0.8 µM,0.657
same,relative viability,PC-3 [JPC-3]; first compound 2.53 µM,0.64
same,relative viability,PC-3 [JPC-3]; first compound 8 µM,0.915
same,relative viability,NCI-H1944; first compound 0.08 µM,0.397
same,relative viability,NCI-H1944; first compound 0.253 µM,0.465
same,relative viability,NCI-H1944; first compound 0.8 µM,0.361
same,relative viability,NCI-H1944; first compound 2.53 µM,0.367
same,relative viability,NCI-H1944; first compound 8 µM,0.371
same,relative viability,HCC-44; first compound 0.08 µM,1.03
same,relative viability,HCC-44; first compound 0.253 µM,1.14
same,relative viability,HCC-44; first compound 0.8 µM,0.964
same,relative viability,HCC-44; first compound 2.53 µM,0.991
same,relative viability,HCC-44; first compound 8 µM,1.09
same,relative viability,A-427; first compound 0.08 µM,0.78
same,relative viability,A-427; first compound 0.253 µM,0.84
same,relative viability,A-427; first compound 0.8 µM,0.655
same,relative viability,A-427; first compound 2.53 µM,0.665
same,relative viability,A-427; first compound 8 µM,0.701
C=C1C(=O)O[C@@H](CCCCCCCC)[C@@H]1C(=O)O [C-75] + CC(=O)c1c(C)c2cnc(Nc3ccc(N4CCNCC4)cn3)nc2n(C2CCCC2)c1=O [Palbociclib] (partner 0.5 µM),relative viability,PC-3 [JPC-3]; first compound 0.08 µM,0.54
same,relative viability,PC-3 [JPC-3]; first compound 0.253 µM,0.509
same,relative viability,PC-3 [JPC-3]; first compound 0.8 µM,0.515
same,relative viability,PC-3 [JPC-3]; first compound 2.53 µM,0.502
same,relative viability,PC-3 [JPC-3]; first compound 8 µM,0.568
same,relative viability,NCI-H1944; first compound 0.08 µM,0.34
same,relative viability,NCI-H1944; first compound 0.253 µM,0.296
same,relative viability,NCI-H1944; first compound 0.8 µM,0.279
same,relative viability,NCI-H1944; first compound 2.53 µM,0.305
same,relative viability,NCI-H1944; first compound 8 µM,0.305
same,relative viability,HCC-44; first compound 0.08 µM,0.971
same,relative viability,HCC-44; first compound 0.253 µM,1.1
same,relative viability,HCC-44; first compound 0.8 µM,1.02
same,relative viability,HCC-44; first compound 2.53 µM,0.956
same,relative viability,HCC-44; first compound 8 µM,0.996
same,relative viability,A-427; first compound 0.08 µM,0.531
same,relative viability,A-427; first compound 0.253 µM,0.468
same,relative viability,A-427; first compound 0.8 µM,0.49
same,relative viability,A-427; first compound 2.53 µM,0.464
same,relative viability,A-427; first compound 8 µM,0.523
